Test results from patent US9375404B2 (Duchesnay Inc., priority 2012, dated 2016).
Values belong to the compound of their own block, whether it stands above or below them.

Experiment: clinical
Settings: human, in vivo
Experimental: Data are from bioavailability studies in healthy volunteers. 5 mg: 12 healthy men, 20 mg: 42 healthy women, 25 mg: 12 healthy women, 40 mg: 18 healthy women;

availability among pyridoxine metabolites: most available active metabolite | dose vs. Cmax relationship (linearity of pharmacokinetics): increase more than expected | half-life: 60 h
Structure (SMILES): Cc1ncc(COP(=O)(O)O)c(C=O)c1O [PLP, pyridoxal 5-phosphate]
persistence in the systemic circulation: remaining in the systemic circulation the longest

half-life (half-life): ~12 h
Structure (SMILES): CN(C)CCOC(C)(c1ccccc1)c1ccccn1 (centres unmarked) [doxylamine, reference compound]

bioavailability at steady-state: significant bioavailability increases | change in Cmax and AUC: significant increase | change in T1/2: significant lengthening | dose vs. Cmax relationship (linearity of pharmacokinetics): increase more than expected
Structure (SMILES): Cc1ncc(CO)c(C=O)c1O [pyridoxal]

amount unchanged in blood: about 1% | availability with increasing dose: availability is not increased | dose vs. Cmax relationship (linearity of pharmacokinetics): Cmax increases less than expected | inter subject and inter study variations: significantly higher | metabolism: rapidly metabolized
Structure (SMILES): Cc1ncc(CO)c(CO)c1O [pyridoxine, reference compound]
